Measured values as given in US8952024B2, “Herbicidal pyrimidone derivatives” (E I du Pont de Nemours and Company, priority 2009, dated 2015).

Assays:
Assay in all cases: Test B pre-/postemergence plant response
Assay type in all cases: in vivo
[1] = system: Italian ryegrass (Lolium multiflorum)
Method in brief: (§1)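 Visual ratings on a 0–100 scale (100 = complete control) were made versus untreated controls 13–15 days after treatment in a greenhouse. Compounds in surfactant-containing non-phytotoxic solvent were applied preemergence to seeds in loam–sand blend or postemergence to 1- to 4-leaf plants (2–18 cm).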

[2] = system: Surinam grass (Brachiaria decumbens)
Method in brief: as §1

[3] = system: bermudagrass (Cynodon dactylon)
Method in brief: as §1

[4] = system: blackgrass (Alopecurus myosuroides)
Method in brief: as §1

[5] = system: cocklebur (Xanthium strumarium)
Method in brief: as §1

corn (Zea mays) = system: corn (Zea mays)
Method in brief: as §1

[6] = system: downy bromegrass (Bromus tectorum)
Method in brief: as §1

[7] = system: green foxtail (Setaria viridis)
Method in brief: as §1

kochia (Kochia scoparia) = system: kochia (Kochia scoparia)
Method in brief: as §1

[8] = system: lambsquarters (Chenopodium album)
Method in brief: as §1

[9] = system: large crabgrass (Digitaria sanguinalis)
Method in brief: as §1

[10] = system: pigweed (Amaranthus retroflexus)
Method in brief: as §1

[11] = system: ragweed (common ragweed, Ambrosia elatior)
Method in brief: as §1

soybean (Glycine max) = system: soybean (Glycine max)
Method in brief: as §1

[12] = system: velvetleaf (Abutilon theophrasti)
Method in brief: as §1

wild oat (Avena fatua) = system: wild oat (Avena fatua)
Method in brief: as §1

[13] = system: yellow nutsedge (Cyperus esculentus)
Method in brief: as §1

[14] = 31 g ai/ha, postemergence, scale 0 to 100, 0 is no effect, 100 is complete control
[15] = 250 g ai/ha, Preemergence, 0 to 100 scale
[16] = Postemergence, 62 g ai/ha, scale 0 (no effect) to 100 (complete control), 13 to 15 days
[17] = Postemergence, 125 g ai/ha, visual rating after 13 to 15 days, scale 0 (no effect) to 100 (complete control)
[18] = Postemergence, 250 g ai/ha, scale 0 to 100 (0 no effect, 100 complete control)
[19] = Preemergence, 31 g ai/ha, scale 0 to 100 (0 no effect, 100 complete control)
[20] = Preemergence, 125 g ai/ha, 0 to 100 scale
[21] = Preemergence, 62 g ai/ha, scale 0 to 100, 0 no effect, 100 complete control

Cc1ccc(F)c(-n2c(-c3ccccc3)ncc(C(=O)C3=C(O)CCCC3=O)c2=O)c1 [Compound 51]
Plant response rating, Ryegrass, Italian [1, 14]: 0
Plant response rating, Ryegrass, Italian [1, 15]: 5
Plant response rating, Ryegrass, Italian [1, 16]: 0
Plant response rating, Ryegrass, Italian [1, 17]: 10
Plant response rating, Ryegrass, Italian [1, 18]: 30
Plant response rating, Ryegrass, Italian [1, 19]: 0
Ryegrass, Italian plant response rating [1, 20]: 0
Plant response rating, Surinam Grass [2, 14]: 80
Plant response rating, Surinam Grass [2, 15]: 100
Plant response rating, Surinam Grass [2, 16]: 85
Plant response rating, Surinam Grass [2, 17]: 90
Plant response rating, Surinam Grass [2, 18]: 90
Plant response rating, Surinam Grass [2, 19]: 95
Surinam Grass plant response rating [2, 20]: 98
Plant response rating, Bermudagrass [3, 14]: 80
Plant response rating, Bermudagrass [3, 15]: 100
Plant response rating, Bermudagrass [3, 16]: 90
Plant response rating, Bermudagrass [3, 17]: 90
Plant response rating, Bermudagrass [3, 18]: 98
Plant response rating, Bermudagrass [3, 19]: 95
Plant response rating, Bermudagrass [3, 21]: 98
Bermudagrass plant response rating [3, 20]: 100
Plant response rating, Blackgrass [4, 14]: 0
Plant response rating, Blackgrass [4, 15]: 20
Plant response rating, Blackgrass [4, 16]: 30
Plant response rating, Blackgrass [4, 17]: 50
Plant response rating, Blackgrass [4, 18]: 55
Plant response rating, Blackgrass [4, 19]: 0
Plant response rating, Blackgrass [4, 21]: 0
Blackgrass plant response rating [4, 20]: 10
Plant response rating, Cocklebur [5, 14]: 85
Plant response rating, Cocklebur [5, 15]: 75
Plant response rating, Cocklebur [5, 16]: 85
Plant response rating, Cocklebur [5, 17]: 90
Plant response rating, Cocklebur [5, 18]: 90
Plant response rating, Cocklebur [5, 19]: 0
Plant response rating, Cocklebur [5, 21]: 0
Cocklebur plant response rating [5, 20]: 20
Plant response rating, Corn (corn (Zea mays); [14]): 75
Plant response rating, Corn (corn (Zea mays); [15]): 0
Plant response rating, Corn (corn (Zea mays); [16]): 80
Plant response rating, Corn (corn (Zea mays); [17]): 80
Plant response rating, Corn (corn (Zea mays); [18]): 85
Plant response rating, Corn (corn (Zea mays); [19]): 0
Plant response rating, Corn (corn (Zea mays); [21]): 0
Corn plant response rating (corn (Zea mays); [20]): 0
Plant response rating, Bromegrass, Downy [6, 14]: 50
Plant response rating, Bromegrass, Downy [6, 15]: 40
Plant response rating, Bromegrass, Downy [6, 16]: 50
Plant response rating, Bromegrass, Downy [6, 17]: 55
Plant response rating, Bromegrass, Downy [6, 18]: 60
Plant response rating, Bromegrass, Downy [6, 19]: 0
Plant response rating, Bromegrass, Downy [6, 21]: 0
Bromegrass, Downy plant response rating [6, 20]: 5
Plant response rating, Foxtail, Green [7, 14]: 85
Plant response rating, Foxtail, Green [7, 15]: 100
Plant response rating, Foxtail, Green [7, 16]: 95
Plant response rating, Foxtail, Green [7, 17]: 95
Plant response rating, Foxtail, Green [7, 18]: 100
Plant response rating, Foxtail, Green [7, 19]: 50
Plant response rating, Foxtail, Green [7, 21]: 50
Foxtail, Green plant response rating [7, 20]: 98
Plant response rating, Kochia (kochia (Kochia scoparia); [14]): 20
Plant response rating, Kochia (kochia (Kochia scoparia); [16]): 20
Plant response rating, Kochia (kochia (Kochia scoparia); [17]): 25
Plant response rating, Kochia (kochia (Kochia scoparia); [18]): 35
Plant response rating, Lambsquarters [8, 14]: 75
Plant response rating, Lambsquarters [8, 15]: 98
Plant response rating, Lambsquarters [8, 16]: 90
Plant response rating, Lambsquarters [8, 17]: 95
Plant response rating, Lambsquarters [8, 18]: 98
Plant response rating, Lambsquarters [8, 19]: 95
Plant response rating, Lambsquarters [8, 21]: 98
Lambsquarters plant response rating [8, 20]: 98
Plant response rating, Crabgrass, Large [9, 14]: 80
Plant response rating, Crabgrass, Large [9, 15]: 100
Plant response rating, Crabgrass, Large [9, 16]: 85
Plant response rating, Crabgrass, Large [9, 17]: 85
Plant response rating, Crabgrass, Large [9, 18]: 90
Plant response rating, Crabgrass, Large [9, 19]: 75
Plant response rating, Crabgrass, Large [9, 21]: 98
Crabgrass, Large plant response rating [9, 20]: 100
Plant response rating, Pigweed [10, 14]: 85
Plant response rating, Pigweed [10, 15]: 100
Plant response rating, Pigweed [10, 16]: 95
Plant response rating, Pigweed [10, 17]: 98
Plant response rating, Pigweed [10, 18]: 100
Plant response rating, Pigweed [10, 19]: 100
Pigweed plant response rating [10, 20]: 100
Plant response rating, Ragweed [11, 14]: 80
Plant response rating, Ragweed [11, 15]: 90
Plant response rating, Ragweed [11, 16]: 80
Plant response rating, Ragweed [11, 17]: 90
Plant response rating, Ragweed [11, 18]: 95
Plant response rating, Ragweed [11, 19]: 65
Ragweed plant response rating [11, 20]: 80
Plant response rating, Soybean (soybean (Glycine max); [14]): 85
Plant response rating, Soybean (soybean (Glycine max); [15]): 85
Plant response rating, Soybean (soybean (Glycine max); [16]): 90
Plant response rating, Soybean (soybean (Glycine max); [17]): 95
Plant response rating, Soybean (soybean (Glycine max); [18]): 95
Plant response rating, Soybean (soybean (Glycine max); [19]): 0
Soybean plant response rating (soybean (Glycine max); [20]): 80
Plant response rating, Velvetleaf [12, 14]: 80
Plant response rating, Velvetleaf [12, 15]: 100
Plant response rating, Velvetleaf [12, 16]: 85
Plant response rating, Velvetleaf [12, 17]: 90
Plant response rating, Velvetleaf [12, 18]: 95
Plant response rating, Velvetleaf [12, 19]: 75
Velvetleaf plant response rating [12, 20]: 98
Plant response rating, Oat, Wild (wild oat (Avena fatua); [14]): 60
Plant response rating, Oat, Wild (wild oat (Avena fatua); [15]): 0
Plant response rating, Oat, Wild (wild oat (Avena fatua); [16]): 60
Plant response rating, Oat, Wild (wild oat (Avena fatua); [17]): 60
Plant response rating, Oat, Wild (wild oat (Avena fatua); [18]): 90
Plant response rating, Oat, Wild (wild oat (Avena fatua); [19]): 0
Oat, Wild plant response rating (wild oat (Avena fatua); [20]): 0
Plant response rating, Nutsedge, Yellow [13, 14]: 60
Plant response rating, Nutsedge, Yellow [13, 15]: 90
Plant response rating, Nutsedge, Yellow [13, 16]: 65
Plant response rating, Nutsedge, Yellow [13, 17]: 75
Plant response rating, Nutsedge, Yellow [13, 18]: 80
Plant response rating, Nutsedge, Yellow [13, 19]: 55
Nutsedge, Yellow plant response rating [13, 20]: 85
